Molecular target: human μ opiate receptor (Homo sapiens, UniProt P35372)
Test: μ binding, displacement of [3H]-naloxone
Conditions: CHO-K1 membranes expressing human μ opiate receptor; Cheng-Prusoff

Chain of human μ opiate receptor (P35372 whole entry): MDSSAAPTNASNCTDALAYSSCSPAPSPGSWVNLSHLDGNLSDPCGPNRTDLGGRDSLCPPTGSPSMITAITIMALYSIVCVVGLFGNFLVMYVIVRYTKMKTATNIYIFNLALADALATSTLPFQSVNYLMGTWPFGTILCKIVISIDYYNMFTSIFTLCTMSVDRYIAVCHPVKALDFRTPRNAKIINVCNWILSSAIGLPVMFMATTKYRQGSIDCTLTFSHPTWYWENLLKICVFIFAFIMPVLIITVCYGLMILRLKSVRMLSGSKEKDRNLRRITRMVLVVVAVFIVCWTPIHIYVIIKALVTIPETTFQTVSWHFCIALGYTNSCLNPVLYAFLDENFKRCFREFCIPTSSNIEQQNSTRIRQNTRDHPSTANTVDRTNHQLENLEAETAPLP

CN(C)C1(Cc2ccccc2)CC=C(c2cc3ccccc3n2C)CC1 (stereo not shown) [Example 302, [1-Benzyl-4-(1-methyl-1H-indol-2-yl)cyclohex-3-enyl]dimethylamine] was tested, and the Ki was 0.103 µM.

From patent publication US8138187B2, “Substituted heteroaryl derivatives” (Gruenenthal GmbH, priority 2006, dated 2012)
